Source: patent US20190218531A1 (priority 2018, published 2019)

Tested on: B. subtilis 3610
Assay type: cell-based, Bacillus subtilis

SMILES: CN(C)C(=O)Nc1ccc(Cl)c(Cl)c1 [DCMU, 3-(3,4-dichlorophenyl)-1,1-dimethylurea]
- effect on inhibition of B. subtilis growth in co-culture with S. elongatus: mitigated

SMILES: O=S(O)(O)=S [thiosulfate]
- effect on inhibition of B. subtilis growth in co-culture with S. elongatus: mitigated
